# Measurements reported in patent US20170290774A1, “NEUROKININ-1 RECEPTOR ANTAGONIST COMPOSITION FOR TREATMENT OF DISEASES AND CONDITIONS OF THE RESPIRATORY TRACT” (PLUS VITECH, S.L., priority 2014, published 2017).
# System: TGFβ2
# Assay: Immunohistochemistry of TGFβ2 in respiratory tract tissue of sodium hypochlorite aerosol-treated rabbits
# Assay type: in vivo, New Zealand albino rabbits
# Source text: It is known that the factors TGF-α, TGF-β 1, TGF-β 2, TGF-β 3, SPARC, MMP-3; MMP-7, MMP-9, MMP-11, MMP-13 and MMP-14, TGF-β, NF-kB, EGF, MMP-9, VEGF and TNF-α which are produced by lung cells (pneumocytes, fibroblasts and vascular endothelial cells) and inflammatory cells (macrophages, lymphocytes and polymorphonuclear leukocytes) are involved in the pathophysiology and development of said respiratory tract diseases. […] Herein, 27 New Zealand albino rabbits (New Zealand White Rabbit) with an initial average weight about 3 kg were used in this example. All subjects were administered an aerosol of a solution consisting of a mixture of water and sodium hypochlorite (35 g sodium hypochlorite per liter of water) at a rate of 5 mL of said solution by inhalation three times a day for 7 days (days 1 to 7 of experimentation). Subsequently, from days 3 to 7, a group of 3 rabbits (Group 1) was administered an oral dose of 10 mg/kg body weight per day, another group of 3 rabbits (Group 2) was administered an oral dose of 40 mg/kg body weight per day, a third group (Group 3) was administered an oral dose of 80 mg/kg body weight per day and a fourth group (Group 4) was administered an oral dose of 100 mg/kg body weight per day. […] This mixture was administered as an aerosol by inhalation, also from days 3 to 7, to a group of 3 rabbits (group 5) at a dose of 0.05 mg/kg body weight per day, to another group of three rabbits (Group 6) at a dose of 0.1 mg/kg body weight per day, to another group of three rabbits (Group 7) at a dose of 0.2 mg/kg body weight per day and to another group of three rabbits (Group 8) at a dose of 0.4 mg/kg body weight per day. A placebo consisting only of olive oil was administered from days 3 to 7 to a control group of 3 rabbits (placebo group). In parallel, 3 rabbits were kept under identical conditions but were not administered any treatment nor the aforementioned sodium hypochlorite solution (control group). […] On day 7 of the experiment all animals were euthanized and necropsied. […] Samples were taken at the peripheral level of the lung parenchyma, just below the pleural surface. Tissue samples were also taken from the nasal cavity, pharynx, larynx and bronchi. Immunohistochemistry studies were performed for all samples to evaluate the levels of the markers TGF-α, TGF-β 1, TGF-β 2, TGF-β 3 SPARC, MMP-3; MMP-7, MMP-9, MMP-11, MMP-14, TGF-β, TNF-α and VEGF. In said immunohistochemistry studies, a sample of each sample was dehydrated by treatment with increasing concentrations of ethanol and finally xylene. Subsequently said dried samples were embedded in paraffin, thus creating a block. Said paraffin blocks were cut on a microtome to a thickness of 5 μm, and the resulting sections (slices) were placed on slides suitable for conducting immunohistochemistry techniques. Subsequently, the sections were deparaffinised by immersion in xylene and then rehydrated through immersion in a series of solutions containing decreasing concentrations of ethanol and, finally, water. […] The samples were then allowed to cool to room temperature over 10 minutes. Endogenous peroxidase activity was blocked by treatment with 3% hydrogen peroxide over 30 min at room temperature. […] In order to verify the expression of NK1 receptors, the cell samples were incubated in the presence of anti-NK1 antibodies ([…], Sigma-Aldrich) diluted 1:1000 at 4° C. overnight. After this time they were washed in 0.05M Tris buffer at room temperature. Subsequently, Envision System-HRP (Dako) reagents were added for 30 min at room temperature. Once this time had expired, the samples were again washed with 0.05 M Tris buffer, and immunoreactivity was visualized by light microscopy with a chromogenic solution with 3,3'-diaminobenzidine (DAB+; Dako, USA). In order to differentiate the cell nuclei, these were lightly stained with haematoxylin. Samples that were not incubated with the primary antibody, but wherein this was replaced by a non-immune serum were used as negative controls. […]
compound,measurement,setting,value
"C[C@@H](OC1OCCN(Cc2nc(=O)[nH][nH]2)C1c1ccc(F)cc1)c1cc(C(F)(F)F)cc(C(F)(F)F)c1 (stereo in doubt) [Aprepitant, 5-([(2R,3S)-2-((R)-1-[3,5-bis(trifluoromethyl)phenyl]ethoxy)-3-(4-fluorophenyl)morpholino]methyl)-1H-1,2,4-triazol-3(2H)-one]",Percent increase in TGFβ2 with respect to the control group,"bronchial tissue, Group 1, oral 10 mg/kg per day","1,342.12%"
same,Percent increase in TGFβ2 with respect to the control group,"bronchial tissue, Group 2, oral 40 mg/kg per day","1,008.32%"
same,Percent increase in TGFβ2 with respect to the control group,"bronchial tissue, Group 3, oral 80 mg/kg per day",878.34%
same,Percent increase in TGFβ2 with respect to the control group,"bronchial tissue, Group 4, oral 100 mg/kg per day",457.45%
same,% Med G5/C: percent increase in marker TGFβ2 with respect to the control group,"bronchial tissue, Group 5","1,209.34%"
same,% Med G6/C: percent increase in marker TGFβ2 with respect to the control group,"bronchial tissue, Group 6",878.45%
same,% Med G7/C: percent increase in marker TGFβ2 with respect to the control group,"bronchial tissue, Group 7",328.45%
same,% Med G8/C: percent increase in marker TGFβ2 with respect to the control group,"bronchial tissue, Group 8",126.45%
same,Percent increase in TGFβ2 with respect to the control group,"laryngeal tissue, Group 1, oral 10 mg/kg per day","1,789.56%"
same,Percent increase in TGFβ2 with respect to the control group,"laryngeal tissue, Group 2, oral 40 mg/kg per day","1,398.89%"
same,Percent increase in TGFβ2 with respect to the control group,"laryngeal tissue, Group 3, oral 80 mg/kg per day",989.89%
same,Percent increase in TGFβ2 with respect to the control group,"laryngeal tissue, Group 4, oral 100 mg/kg per day",816.89%
same,Percent increase in TGFβ2 with respect to the control group,"laryngeal tissue, Group 5, inhalation 0.05 mg/kg per day","1,506.89%"
same,Percent increase in TGFβ2 with respect to the control group,"laryngeal tissue, Group 6, inhalation 0.1 mg/kg per day",996.89%
same,Percent increase in TGFβ2 with respect to the control group,"laryngeal tissue, Group 7, inhalation 0.2 mg/kg per day",560.38%
same,Percent increase in TGFβ2 with respect to the control group,"laryngeal tissue, Group 8, inhalation 0.4 mg/kg per day",120.23%
same,Percent increase in TGFβ2 with respect to the control group,"lung tissue, Group 1, oral 10 mg/kg per day",775.23%
same,Percent increase in TGFβ2 with respect to the control group,"lung tissue, Group 2, oral 40 mg/kg per day",582.05%
same,Percent increase in TGFβ2 with respect to the control group,"lung tissue, Group 3, oral 80 mg/kg per day",475.25%
same,Percent increase in TGFβ2 with respect to the control group,"lung tissue, Group 4, oral 100 mg/kg per day",438.55%
same,Percent increase in TGFβ2 with respect to the control group,"lung tissue, Group 5, inhalation 0.05 mg/kg per day",797.78%
same,Percent increase in TGFβ2 with respect to the control group,"lung tissue, Group 6, inhalation 0.1 mg/kg per day",338.44%
same,Percent increase in TGFβ2 with respect to the control group,"lung tissue, Group 7, inhalation 0.2 mg/kg per day",198.92%
same,Percent increase in TGFβ2 with respect to the control group,"lung tissue, Group 8, inhalation 0.4 mg/kg per day",125.88%
same,Percent increase in TGFβ2 with respect to the control group,"nasal cavity tissue, Group 1, oral 10 mg/kg per day","1,838.85%"
same,Percent increase in TGFβ2 with respect to the control group,"nasal cavity tissue, Group 2, oral 40 mg/kg per day","1,469.70%"
same,Percent increase in TGFβ2 with respect to the control group,"nasal cavity tissue, Group 3, oral 80 mg/kg per day","1,290.84%"
same,Percent increase in TGFβ2 with respect to the control group,"nasal cavity tissue, Group 4, oral 100 mg/kg per day","1,151.85%"
same,Percent increase in TGFβ2 with respect to the control group,"nasal cavity tissue, Group 5, inhalation 0.05 mg/kg per day","1,451.21%"
same,Percent increase in TGFβ2 with respect to the control group,"nasal cavity tissue, Group 6, inhalation 0.1 mg/kg per day",825.63%
same,Percent increase in TGFβ2 with respect to the control group,"nasal cavity tissue, Group 7, inhalation 0.2 mg/kg per day",252.52%
same,Percent increase in TGFβ2 with respect to the control group,"nasal cavity tissue, Group 8, inhalation 0.4 mg/kg per day",136.09%
same,Percent increase in TGFβ2 with respect to the control group,"pharyngeal tissue, Group 1, oral 10 mg/kg per day","1,575.67%"
same,Percent increase in TGFβ2 with respect to the control group,"pharyngeal tissue, Group 2, oral 40 mg/kg per day","1,235.45%"
same,Percent increase in TGFβ2 with respect to the control group,"pharyngeal tissue, Group 3, oral 80 mg/kg per day",980.65%
same,Percent increase in TGFβ2 with respect to the control group,"pharyngeal tissue, Group 4, oral 100 mg/kg per day",780.54%
same,Percent increase in TGFβ2 with respect to the control group,"pharyngeal tissue, Group 5, inhalation 0.05 mg/kg per day","1,202.46%"
same,Percent increase in TGFβ2 with respect to the control group,"pharyngeal tissue, Group 6, inhalation 0.1 mg/kg per day",725.63%
same,Percent increase in TGFβ2 with respect to the control group,"pharyngeal tissue, Group 7, inhalation 0.2 mg/kg per day",252.52%
same,Percent increase in TGFβ2 with respect to the control group,"pharyngeal tissue, Group 8, inhalation 0.4 mg/kg per day",136.09%
